Laboratory results as given in US4332794A, “6"-Deoxydibekacin, 4",6"-dideoxydibekacin and 1-N-aminoacyl derivatives thereof, and the production of these new compounds” (Zaidan Hojin Biseibutsu Kagaku Kenkyu Kai, priority 1979, dated 1982).
≈ marks a conversion by molar mass, not a printed value. Like-named read-outs stand apart in the source and are kept apart here.

Key:
[1] = system: Escherichia coli W677; assay: MIC, serial dilution on nutrient agar; assay type: cell-based; conditions: W677, 18 h
[2] = system: Escherichia coli JR66/W677; assay: MIC, serial dilution on nutrient agar; assay type: cell-based; conditions: JR66/W677, 18 h
[3] = system: Proteus rettgeri GN311; assay: MIC, serial dilution on nutrient agar; assay type: cell-based; conditions: Providencia rettgeri, GN311; nutrient agar, 37° C., 18 hours; read-out: MIC
[4] = system: Providencia Pv 16; assay: MIC, serial dilution on nutrient agar; assay type: cell-based
[5] = system: Shigella dysenteriae JS11910; assay: MIC, serial dilution on nutrient agar; assay type: cell-based; conditions: JS11910, 18 h
[6] = system: Pseudomonas aeruginosa H9; assay: MIC, serial dilution on nutrient agar; assay type: cell-based
[7] = system: Staphylococcus aureus APO1; assay: MIC, serial dilution on nutrient agar; assay type: cell-based; conditions: APO1, 18 h
[8] = system: Pseudomonas aeruginosa No. 12; assay: MIC, serial dilution on nutrient agar; assay type: cell-based; conditions: NO.12, nutrient agar, 37° C., 18 hours, read-out: MIC
[9] = system: Bacillus subtilis NRRL B-558; assay: MIC, serial dilution on nutrient agar; assay type: cell-based; conditions: NRRLB558, 37° C., 18 hours
[10] = system: Escherichia coli K-12 1410 R81; assay: MIC, serial dilution on nutrient agar; assay type: cell-based; conditions: K121410R81, 18 h
[11] = system: Escherichia coli K-12 LA 290 R64; assay: MIC, serial dilution on nutrient agar; assay type: cell-based; conditions: K12LA290R64, 18 h
[12] = intravenous LD50 in mice; conditions: mouse, in vivo, estimated
[13] = system: Escherichia coli K-12 LA 290 R56; assay: microbe, parasite or virus in culture; assay type: cell-based; conditions: K12LA290R56, 18 h
[14] = system: Pseudomonas aeruginosa K-Ps102; assay: MIC, serial dilution on nutrient agar; assay type: cell-based; conditions: KPS102, nutrient agar, 37° C., 18 hours, read-out: MIC
[15] = system: Pseudomonas aeruginosa PST1; assay: MIC, serial dilution on nutrient agar; assay type: cell-based
[16] = system: Bacillus anthracis; assay: microbe, parasite or virus in culture; assay type: cell-based; conditions: 18 h
[17] = system: Escherichia coli K-12 R 388; assay: MIC, serial dilution on nutrient agar; assay type: cell-based; conditions: K12R388, 18 h
[18] = system: Escherichia coli NIHJ; assay: MIC, serial dilution on nutrient agar; assay type: cell-based; conditions: 18 h
[19] = system: Pseudomonas aeruginosa H11; assay: MIC, serial dilution on nutrient agar; assay type: cell-based
[20] = system: Sarcina lutea PCI 1001; assay: MIC, serial dilution on nutrient agar; assay type: cell-based; conditions: Micrococcus luteus
[21] = system: Mycobacterium smegmatis ATCC 607; assay: MIC, serial dilution on nutrient agar; assay type: cell-based; conditions: Mycolicibacterium smegmatis, ATCC607, 18 h
[22] = system: Pseudomonas aeruginosa ROS134/PU21; assay: microbe, parasite or virus in culture; assay type: cell-based; conditions: ROS134/PU21, 18 h
[23] = system: Staphylococcus epidermidis 109; assay: MIC, serial dilution on nutrient agar; assay type: cell-based; conditions: Staphylococcus epidermidis, 109, 18 h
[24] = system: Staphylococcus aureus Smith; assay: MIC, serial dilution on nutrient agar; assay type: cell-based; conditions: 37° C., 18 hours
[25] = system: Klebsiella pneumoniae 22 #3038; assay: MIC, serial dilution on nutrient agar; assay type: cell-based; conditions: 18 h
[26] = system: Bacillus cereus ATCC 10702; assay: MIC, serial dilution on nutrient agar; assay type: cell-based
[27] = system: Bacillus subtilis PCI 219; assay: MIC, serial dilution on nutrient agar; assay type: cell-based; conditions: PCI219, 37° C., 18 hours
[28] = system: Pseudomonas aeruginosa 99; assay: MIC, serial dilution on nutrient agar; assay type: cell-based; conditions: Pseudomonas aeruginosa, 99; nutrient agar, 37° C., 18 hours; read-out: MIC
[29] = system: Corynebacterium bovis 1810; assay: MIC, serial dilution on nutrient agar; assay type: cell-based
[30] = system: Salmonella enteritidis 1891; assay: MIC, serial dilution on nutrient agar; assay type: cell-based; conditions: Salmonella enterica, 18 h
[31] = oto-toxicity; conditions: compounds of this invention
[32] = system: Mycrococcus flavus FDA 16; assay: MIC, serial dilution on nutrient agar; assay type: cell-based
[33] = system: Pseudomonas aeruginosa B-13; assay: MIC, serial dilution on nutrient agar; assay type: cell-based
[34] = system: Escherichia coli K-12 LA 290 R55; assay: microbe, parasite or virus in culture; assay type: cell-based; conditions: K12LA290R55, 18 h
[35] = system: Escherichia coli K-12; assay: MIC, serial dilution on nutrient agar; assay type: cell-based; conditions: K12, 18 h
[36] = system: Escherichia coli JR255; assay: microbe, parasite or virus in culture; assay type: cell-based; conditions: JR255, 18 h
[37] = system: Pseudomonas aeruginosa A3; assay: MIC, serial dilution on nutrient agar; assay type: cell-based; conditions: A3, 18 h
[38] = system: Escherichia coli K-12 ML 1410; assay: MIC, serial dilution on nutrient agar; assay type: cell-based; conditions: K12ML1410, 18 h
[39] = system: Escherichia coli K-12 R5; assay: microbe, parasite or virus in culture; assay type: cell-based; conditions: K12R5, 18 h
[40] = system: Pseudomonas aeruginosa TI-13; assay: MIC, serial dilution on nutrient agar; assay type: cell-based; conditions: TI13, nutrient agar, 37° C., 18 hours, read-out: MIC

| Compound | MIC [1] [µg/mL] | MIC [2] [µg/mL] | MIC [3] [µg/mL] | MIC [5] [µg/mL] | MIC [7] [µg/mL] | MIC [8] [µg/mL] | MIC [9] [µg/mL] | MIC [10] [µg/mL] | MIC [11] [µg/mL] | LD50 [12] [mg/kg] | MIC [13] [µg/mL] | MIC [14] [µg/mL] | MIC [16] [µg/mL] | MIC [17] [µg/mL] | MIC [18] [µg/mL] | MIC [21] [µg/mL] | MIC [22] [µg/mL] | MIC [23] [µg/mL] | MIC [24] [µg/mL] | MIC [25] [µg/mL] | further results |
| --- | --- | --- | --- | --- | --- | --- | --- | --- | --- | --- | --- | --- | --- | --- | --- | --- | --- | --- | --- | --- | --- |
| C[C@H]1O[C@H](O[C@@H]2[C@@H](O)[C@H](O[C@H]3O[C@H](CN)CC[C@H]3N)[C@@H](N)C[C@H]2N)[C@H](O)[C@@H](N)[C@@H]1O [6"-DDKB, 6"-deoxydibekacin] | 1.56 (≈ 3.58 µM) | 100 (≈ 230 µM) | 6.25 (≈ 14.4 µM) | 3.13 (≈ 7.19 µM) | 3.13 (≈ 7.19 µM) | 6.25 (≈ 14.4 µM) | < 0.2 | 1.56 (≈ 3.58 µM) | 25 (≈ 57.4 µM) | > 60 | 25 (≈ 57.4 µM) | 6.25 (≈ 14.4 µM) | 0.39 (≈ 0.895 µM) | 1.56 (≈ 3.58 µM) | 1.56 (≈ 3.58 µM) | 0.78 (≈ 1.79 µM) | > 100 | 1.56 (≈ 3.58 µM) | < 0.2 | 100 (≈ 230 µM) | MIC ([4]; PV16, 18 h): > 100 µg/mL; MIC ([6]; H9, nutrient agar, 37° C., 18 hours, read-out: MIC): 12.5 µg/mL (≈ 28.7 µM); MIC ([15]; PST1, 18 h): > 100 µg/mL; MIC ([19]; H11, nutrient agar, 37° C., 18 hours, read-out: MIC): 12.5 µg/mL (≈ 28.7 µM); MIC ([20]; PCI1001, nutrient agar, 37° C., 18 hours, read-out: MIC): 25 µg/mL (≈ 57.4 µM); MIC ([26]; ATCC10702, nutrient agar, 37° C., 18 hours, read-out: MIC): 6.25 µg/mL (≈ 14.4 µM); MIC [27]: < 0.2 µg/mL; MIC [28]: 12.5 µg/mL (≈ 28.7 µM); MIC ([29]; Corynebacterium bovis, 1810, nutrient agar, 37° C., 18 hours, read-out: MIC): 25 µg/mL (≈ 57.4 µM); MIC [30]: 3.13 µg/mL (≈ 7.19 µM); oto-toxicity [31]: low oto-toxicity; MIC ([32]; nutrient agar, 37° C., 18 hours, read-out: MIC): 25 µg/mL (≈ 57.4 µM); MIC ([33]; B13, 18 h): 50 µg/mL (≈ 115 µM); MIC [34]: > 100 µg/mL; MIC [35]: 1.56 µg/mL (≈ 3.58 µM); MIC [36]: > 100 µg/mL; MIC [37]: 1.56 µg/mL (≈ 3.58 µM); MIC [38]: 3.13 µg/mL (≈ 7.19 µM); MIC [39]: 100 µg/mL (≈ 230 µM); MIC [40]: 12.5 µg/mL (≈ 28.7 µM) |
| C[C@@H]1C[C@H](N)[C@@H](O)[C@@H](O[C@@H]2[C@@H](O)[C@H](O[C@H]3O[C@H](CN)CC[C@H]3N)[C@@H](N)C[C@H]2NC(=O)[C@@H](O)CCN)O1 [AHB-4",6"-DDKB, 1-N-(L-4-amino-2-hydroxybutyryl)-4",6"-dideoxydibekacin] | 1.56 (≈ 3 µM) | 3.13 (≈ 6.01 µM) | 25 (≈ 48 µM) | 3.13 (≈ 6.01 µM) | 1.56 (≈ 3 µM) | 12.5 (≈ 24 µM) | < 0.2 | 1.56 (≈ 3 µM) | 0.78 (≈ 1.5 µM) | > 80 | 1.56 (≈ 3 µM) | 12.5 (≈ 24 µM) | < 0.2 | 0.78 (≈ 1.5 µM) | 1.56 (≈ 3 µM) | 0.39 (≈ 0.749 µM) | > 100 | 1.56 (≈ 3 µM) | < 0.2 | 3.13 (≈ 6.01 µM) | MIC ([4]; PV16, nutrient agar, 37° C., 18 hours, read-out: MIC): 25 µg/mL (≈ 48 µM); MIC ([6]; H9, 18 h): 6.25 µg/mL (≈ 12 µM); MIC ([15]; PST1, nutrient agar, 37° C., 18 hours, read-out: MIC): 25 µg/mL (≈ 48 µM); MIC ([19]; H11, 18 h): 50 µg/mL (≈ 96 µM); MIC ([20]; PCI1001, 18 h): 3.13 µg/mL (≈ 6.01 µM); MIC ([26]; ATCC10702, 18 h): 1.56 µg/mL (≈ 3 µM); MIC [27]: < 0.2 µg/mL; MIC [28]: 12.5 µg/mL (≈ 24 µM); MIC ([29]; Corynebacterium bovis, 1810, 18 h): 6.25 µg/mL (≈ 12 µM); MIC [30]: 6.25 µg/mL (≈ 12 µM); oto-toxicity [31]: low oto-toxicity; MIC ([32]; 18 h): 1.56 µg/mL (≈ 3 µM); MIC ([33]; B13, nutrient agar, 37° C., 18 hours, read-out: MIC): 12.5 µg/mL (≈ 24 µM); MIC [34]: 1.56 µg/mL (≈ 3 µM); MIC [35]: 1.56 µg/mL (≈ 3 µM); MIC [36]: 1.56 µg/mL (≈ 3 µM); MIC [37]: 1.56 µg/mL (≈ 3 µM); MIC [38]: 1.56 µg/mL (≈ 3 µM); MIC [39]: 100 µg/mL (≈ 192 µM); MIC [40]: 25 µg/mL (≈ 48 µM) |
